According to patent publication US11883468B2, “Compositions and methods to suppress tumor growth in bone, prevent cachectic muscle loss, and preserve skeletal integrity” (United States Government As Represented By The Department …, priority 2019, dated 2024):

How the values were obtained:
[1] = tested on: MDA-MB-231 breast cancer cells; assay: EVOCA (ex vivo organ co-culture assay of tumor + bone), tumor burden by SSQ-PCR for hRPL32; format: cell-based, human; settings: 7d EVOCA, wt bones
Procedure: 7D EVOCA. Tumor burden by SSQ-PCR for hRPL32.
(§1) EVOCA (ex vivo organ co-culture assay) of breast cancer cells and bone: Segments of neonatal mouse bone are prepared by a modification of Mohammad et al [2008]. Calvariae from euthanized 14 day old Swiss Webster pups are cut into 5 mm disks with a biopsy punch, yielding two disks (hemi-calvariae) per pup, and placed into wells of uncoated 24-well plates. Calvariae from βArr2−/− and +/+ littermates, as available, can be shipped in sterile tubes in standard tissue culture medium by overnight FedEx from the Luttrell laboratory at Medical University of South Carolina. Bones shipped overnight in media survive the shipping and give reproducible results, compared to freshly harvested bones. Cancer cells (2-10×10^3, depending on cell types and ability to adhere to bones; e.g., 2,000 for MDA-MB-231) are added in 0.5 ml BGJb medium (Life Technologies) +10% fetal calf serum and incubated at 37° C. in 5% CO2. […] At the end of the incubation, bone are either fixed and decalcified for routine histology or homogenized for RNA isolation with a bead beater, using QIAGEN RNeasy mini kits, converted to cDNA (Biorad iScript,), and analyzed by quantitative PCR using Biorad SYBR green PCR kits and a Biorad iCycler single-color real-time detection system. […] EVOCA cultures can be analyzed by histology and IHC staining. […]

[2] = tested on: bone; settings: cited from earlier work
[3] = tested on: calvarial osteoblasts; settings: osteoblasts from treated mice; cited from earlier work
[4] = tested on: MDA-MB-231 BC cells; assay: EVOCA with MDA-MB-231 cells, tumor gene mRNA by PCR; format: cell-based, human; settings: 7d EVOCA
Procedure: FIGS. 7A, 7B, and 7C show the effects of bPTH7-34DD on MDA-MB-231; 7d EVOCA, PCR as done in FIG. 5.
as §1, with “bones.” for “bones. Cancer cells (2-10×10^3, depending on cell types and ability to adhere to bones; e.g., 2,000 for MDA-MB-231) are added in 0.5 ml BGJb medium (Life Technologies) +10% fetal calf serum and incubated at 37° C. in 5% CO2.”

[5] = 4 or 8 weeks, once-daily injection
[6] = continuous infusion, 40 μg/kg/d

| Structure (SMILES) | MDA-MB-231 tumor growth in bone [1] | cortical bone parameters (periosteal circumference and cortical thickness) [2, 5] | mineral apposition (MAR, BFR) [2, 5] | tibial trabecular bone parameters (BV/TV, trabecular number) [2, 5] | elevation of urinary calcium excretion [2, 6] | mRNA for Dars, aspartyl-tRNA synthetase, in bone [2, 6] | mRNA of Gab 1 in bone [2, 6] | serum osteocalcin ([2]; once-daily injection) | osteoblast number and osteoid surface ([2]; quantitative histomorphometry) | osteoclast numbers ([2]; quantitative histomorphometry) | anabolic markers of Obl activity (RUNX2, Alk Phos, Col1A1) [3] | tumor hPTHrP mRNA [4] |
| --- | --- | --- | --- | --- | --- | --- | --- | --- | --- | --- | --- | --- |
| CC[C@H](C)[C@H](NC(=O)[C@H](CCC(=O)O)NC(=O)[C@H](CO)NC(=O)[C@@H](NC(=O)[C@@H](N)CO)C(C)C)C(=O)N[C@@H](CCC(N)=O)C(=O)N[C@@H](CC(C)C)C(=O)N[C@@H](CCSC)C(=O)N[C@@H](Cc1cnc[nH]1)C(=O)N[C@@H](CC(N)=O)C(=O)N[C@@H](CC(C)C)C(=O)NCC(=O)N[C@@H](CCCCN)C(=O)N[C@@H](Cc1cnc[nH]1)C(=O)N[C@@H](CC(C)C)C(=O)N[C@@H](CC(N)=O)C(=O)N[C@@H](CO)C(=O)N[C@@H](CCSC)C(=O)N[C@@H](CCC(=O)O)C(=O)N[C@@H](CCCN=C(N)N)C(=O)N[C@H](C(=O)N[C@@H](CCC(=O)O)C(=O)N[C@@H](Cc1c[nH]c2ccccc12)C(=O)N[C@@H](CC(C)C)C(=O)N[C@@H](CCCN=C(N)N)C(=O)N[C@@H](CCCCN)C(=O)N[C@@H](CCCCN)C(=O)N[C@@H](CC(C)C)C(=O)N[C@@H](CCC(N)=O)C(=O)N[C@@H](CC(=O)O)C(=O)N[C@H](C(=O)N[C@@H](Cc1cnc[nH]1)C(=O)N[C@@H](CC(N)=O)C(=O)N[C@@H](Cc1ccccc1)C(=O)O)C(C)C)C(C)C [hPTH1-34] | increased | increased only by hPTH1-34 | equivalently increased | increased by both | 5 × | increased | doubled | equivalently raised | increased by both | increased only by hPTH1-34 | strongly increased |  |
| Fc1ccc(Cl)cc1-c1nc(Nc2ccncc2)c2nccnc2n1 [SD208] |  |  |  |  |  |  |  |  |  |  |  | not seen |
